One may read the melting point as the temperature, or range, at which the solid turns liquid.

`CCc1ccc(-c2ccc(Cl)cc2)cc1` registered a melting point of 103 °C.

Consider `CCOC(=O)c1cc2cc(-c3ccc(NC(C)=O)cc3)ccc2o1`, for which the melting point was 174 to 176 °C.

The compound `CC(=O)c1nc(-c2ccccn2)[nH]c1C` had a melting point of 145 to 147 °C.

With `CN1C(=O)[C@@H](NC(=O)CCC2CCCCC2)C[C@@H](c2ccccc2)c2ccccc21` (relative stereo), the melting point lay in the range of 156 to 158 °C.

For the compound `CCOC(=O)C(NC(=O)OC(C)(C)C)=C1CSCSC1`, the melting point turned out to be 154 °C.

For the compound `CCNc1nc(-c2ccc(NC(=O)OCc3cccnc3)cc2)ccc1C(=O)NC`, the melting point is 234 to 235 °C.

`O=C(Nc1nc(=O)c2cnn3c2n1CC=C3c1cccc(C(F)(F)F)c1)OCC(Cl)(Cl)Cl`: the melting point is 225 to 226 °C.

For the compound `CCc1cc(C#N)c(Cl)nc1C`, the melting point fell in the range of 63 to 64 °C.

`O=C(O)CCc1cccc(C(=O)c2ccccc2)c1` showed a melting point of 70 °C.

`COC(=O)C1=Cc2cc(-c3ccc(C(F)(F)F)cc3)ccc2S(=O)(=O)CC1` gave a melting point of 168 to 170 °C.

With `C=Cc1noc(C2=CCCN(C(=O)OC(C)(C)C)C2)n1`, the melting point is 81 to 82 °C.

`C=COCCn1cccc1-c1nc(-c2ccc(OC)cc2)c(-c2ccc(OC)cc2)s1`: the melting point lay within 81.5 to 84.5 °C.

Regarding `CCC(=O)NC(C)(C)c1ccc(C(=O)Nc2cn3cc(Cl)ccc3n2)cc1`, the melting point lay in the range of 249 to 252 °C.

`O=C(NO)c1ccc2c(c1)CN(C(=O)OCc1cccnc1)C2`: the melting point lay within 196 to 199 °C.

In the case of `CC(C)CC(CP(=O)(O)CNC(=O)c1ccccc1)C(=O)N(c1ccc(-c2ccccc2)cc1)[C@@H](C)C(=O)O` (stereo partly specified), the melting point fell in the range of 148 to 150 °C.

`CON1CCC2(CC1)C(=O)C(c1c(C)ccc(Cl)c1C)([N+](=O)[O-])C(=O)N2OC` (stereo unspecified) gave a melting point of 94 to 97 °C.

In turn, `CC(C)c1nn(-c2ccccn2)c(-c2ccc(F)cc2)c1/C=C/C=O` had a melting point of 105 to 107 °C.

For the compound `COC(=O)C(=O)c1ccc(OCCOc2ccccc2F)cc1`, the melting point lay within 112 to 113 °C.

Turning to `CNC1(c2ccccc2Cl)C(=O)N(S(=O)(=O)c2ccc(NC(=O)c3cccnc3)cc2)c2ccc(Cl)cc21` (stereo unspecified), the melting point was 228 °C.

Compound `CS(=O)(=O)c1ccc(-c2sc(-c3ccccc3Cl)nc2-c2ccc(Cl)cc2)cc1` showed a melting point of 177 to 179 °C.

The compound `CCOC(=O)c1cn(-c2ccc(F)cc2C)c2c(C)c([N+](=O)[O-])c(F)cc2c1=O` showed a melting point of 207 to 209 °C.

Compound `CC(C)=CCOC(=O)c1cnn(-c2c(Cl)cc(Cl)cc2Cl)c1N` came in with a melting point of 102 to 105 °C.

Compound `CCOC(=O)CN1C(=O)C(N[C@H]2CCCCNC2=O)CCc2ccccc21` (stereo partly specified) registered a melting point of 148 to 150 °C.

For `C=CCOc1ccc(Br)cc1C(C)=NO`, the melting point was in the range of 110 to 111 °C.

For `CCCSc1nsnc1O`, the melting point fell in the range of 84 to 85 °C.

In the case of `NC(=O)Cc1ccc(OCC(O)CNCCCn2cnc3ccccc32)cc1` (stereo unspecified), the melting point was 92 to 96 °C.

`O=C(C=Cc1ccc(O)c(O)c1)C=Cc1ccc(O)c(O)c1` displayed a melting point of 221 to 223 °C.

`Cc1c(C(=O)N[C@@H](Cc2ccc(OCc3ccccc3)cc2)C(=O)O)oc2cc(-c3ccc(Cl)cc3)ccc12` showed a melting point of 143 to 144 °C.

In turn, `Cc1noc(NS(=O)(=O)c2ccccc2-c2ccc(-c3ncco3)cc2Cc2ncco2)c1C` displayed a melting point of 88 to 95 °C.

In turn, `NC(=O)c1ccccc1N1CCc2cc(Br)ccc21` registered a melting point of 120 to 122 °C.

Compound `CCOC(=O)C1CCc2cc(O)c(C(C)=O)cc2C1` (stereo unspecified) displayed a melting point of 73 to 75 °C.

`CCC(=CC(N)C(=O)O)CP(=O)(O)O` (stereo unspecified) showed a melting point of 176 °C.

Turning to `COc1nc(C)c(C)nc1N(C)C(=O)N1CCN(c2cc(Cl)cc(Cl)c2)CC1`, the melting point was 97 to 99 °C.

`CC(=O)c1cn(-c2c(Cl)cc(C(F)(F)F)cc2Cl)nc1C(F)(F)F` yielded a melting point of 134 °C.

As for `CCCc1cc(NC(=O)N2CCN(c3cc(OC)cc(OC)c3)CC2)c(OC)nc1C`, the melting point was 82 to 84 °C.

`CC1(C)CC(N(c2nc(F)nc(N(C3CC(C)(C)NC(C)(C)C3)C3CC(C)(C)NC(C)(C)C3)n2)C2CC(C)(C)NC(C)(C)C2)CC(C)(C)N1` showed a melting point of 298 to 304 °C.

Take `CNc1c(OC)cc(C(O)CS(C)(=O)=O)cc1OC` (stereo unspecified): the melting point fell in the range of 141 to 142 °C.

Consider `CC1=NOC(c2c(S(C)(=O)=O)ccc(C(=O)c3cnn(C4CC4)c3O)c2Cl)C1` (stereo unspecified), for which the melting point was > 220 °C.

With `CCCCCN(CCC12CC3CC(CC(C3)C1)C2)C(=O)NCCCc1ccnc2ccccc12`, the melting point lay in the range of 80.2 to 102 °C.

For the compound `CCCC(=O)C(=CNc1ccc(OC(=O)c2ccccc2)cc1OC)C(=O)OCC`, the melting point fell in the range of 85 to 87 °C.

`O=C(c1ccccc1)N1CCC(Cc2ccccc2)(C(=O)O)CC1` displayed a melting point of 183 to 189 °C.

Regarding `CN(C)c1ccc(NC(=O)N(CC2CCC(CN(C(=O)Nc3ccc(N(C)C)cc3)C3CC4CCC3C4)CC2)C2CC3CCC2C3)cc1` (stereo unspecified), the melting point lay within 188 to 191 °C.

With `CN(Cc1cccc2c1CN(C1CCC(=O)NC1=O)C2=O)C(=O)Nc1cc(F)cc(F)c1` (stereo unspecified), the melting point was 228 to 230 °C.

For `C[C@H]([C@@H](C)P(=S)(c1ccccc1)c1ccccc1)P(=S)(c1ccccc1)c1ccccc1`, the melting point lay within 213 to 214 °C.

As for `N#Cc1ccc(C(F)(F)C(F)(F)C(F)(F)c2ccc(C#N)c(C#N)c2)cc1C#N`, the melting point was 133 to 135 °C.

In turn, `CCOC(=O)CCCOc1cccc(-c2n[nH]c3c2Cc2ccccc2-3)c1` yielded a melting point of 142 to 148 °C.

`CC1CN(c2c(F)c(F)c3c(=O)c(C(=O)O)cn(C4CC4)c3c2F)CCN1` (stereo unspecified) displayed a melting point of 235 to 237 °C.

Take `O=C(CC1CCN(Cc2ccccc2)CC1)Nc1cncnc1NCc1ccc(F)cc1`: the melting point was determined as 157 °C.

`N#Cc1cnc2c(sc3ccccc32)c1Nc1cccc(Br)c1` displayed a melting point of 240 to 242 °C.

`Nc1nc(NCc2cccc(F)c2)nc2nc(-c3ccco3)nn12` showed a melting point of 216 to 218 °C.

The compound `COc1cc(-n2c(C#N)c(C#N)n(C(F)F)c2=O)c(F)cc1Br` gave a melting point of 150 °C.

`COc1ccc(C2=NN(C3CCN(S(=O)(=O)CCNCC(O)c4ccc(O)c(CO)c4)CC3)C(=O)[C@@H]3CC=CC[C@H]23)cc1OC` (stereo partly specified) had a melting point of 97 to 99 °C.

As for `C[C@H](CO)NC1=NS(=O)(=O)c2sc(Cl)cc2N1`, the melting point fell in the range of 203 to 204 °C.

The compound `OC(CCc1ccccc1)c1cnc2sc3c(n12)CCC3` (stereo unspecified) gave a melting point of 117 to 118 °C.

On to `O=C1CCC2(CC1)Cc1ccccc1C2`, for which the melting point lay in the range of 91 to 94 °C.

Compound `CN1CCC(Nc2nc3ncnc(O)c3n2Cc2ccc(F)cc2)CC1` showed a melting point of 256 °C.

`CS(=O)(=O)c1cc(C(F)(F)F)ns1` yielded a melting point of 93 to 94 °C.

As to `NC(Cc1nc2ccccc2nc1CP(=O)(O)O)C(=O)O` (stereo unspecified), the melting point was 174 °C.

`N#Cc1ccc(CN2C(=O)c3ccccc3C2=O)cc1` gave a melting point of 189 to 191 °C.

As for `CCOC(=O)CCc1cccc(-c2c(CC(=O)Nc3ccc(F)cc3C(F)(F)F)c(=O)oc3ccccc23)c1`, the melting point is 163 to 164 °C.

Consider `N#CCOc1ccc2cc(-c3ccc(-c4ccccc4)[nH]3)ccc2c1`, for which the melting point was 142 °C.

In the case of `O=c1[nH]c2c3ccccc3ccc2n(Cc2ccccc2)c1=O`, the melting point came to 308 °C.

As for `CC1(C)Nc2ccccc2-c2c([N+](=O)[O-])cnn21`, the melting point fell in the range of 193 to 195 °C.

Consider `CCn1cc(-c2cccc(C(F)(F)F)c2)c(=O)n1-c1ccccc1`, for which the melting point is 156 to 157 °C.

In the case of `Cc1ccc(C(=O)Nc2ccc(CN3CCN(C)CC3)cc2)cc1Nc1nccc(-c2cccnc2)n1`, the melting point was in the range of 153 to 155 °C.

Compound `CC#CCOc1ccc(SC(C(=O)O)c2ccc(-c3cccs3)cc2)cc1` (stereo unspecified) yielded a melting point of 137 °C.

`Cc1cccc(-c2n[nH]cc2-c2ccc(F)c(-c3c[nH]cn3)c2)n1` yielded a melting point of 229 to 233 °C.

In turn, `CC(C)(C)OC(=O)CN(CBr)C(=O)c1ccccc1` gave a melting point of 98 to 102 °C.

Take `CCCSC(=S)N1Cc2[nH]c3ccccc3c2CC1CO` (stereo unspecified): the melting point fell in the range of 130 to 131 °C.

In turn, `Cc1oc(-c2ccccc2)nc1CNS(=O)(=O)c1ccc(CC2SC(=O)NC2=O)cc1` (stereo unspecified) had a melting point of 120 to 122 °C.

Take `CC(C)CNC(=O)c1ccc(-c2ccc3nnn(Cc4ccc5ncccc5c4)c3n2)cc1F`: the melting point lay in the range of 158 to 160 °C.

As to `COc1cc(Nc2nc3cccc(-c4ccc(CNC(C)=O)cc4)c3o2)cc(OC)c1OC`, the melting point fell in the range of 237 to 239 °C.

Compound `COc1ccccc1SCCCCCC(=O)O` came in with a melting point of 81 to 82 °C.

For the compound `CC1CCCC(C)N1Cc1ccc2cc(NC(=O)c3ccc(-c4ccc(Cl)cc4)cc3)ccc2c1` (stereo unspecified), the melting point lay within 220 to 222 °C.

`O=C(O)C1CCc2ccccc2N1C(=O)CSSCC(=O)N1c2ccccc2CCC1C(=O)O` (stereo unspecified) came in with a melting point of 172 to 174 °C.

The compound `COc1cc(-c2cccc([N+](=O)[O-])c2)ccc1N` displayed a melting point of 167 to 168 °C.

For the compound `O=C1C(=Cc2ccccc2N2CCNCC2)SCCN1c1ccc(Cl)c(Cl)c1`, the melting point was in the range of 154 to 155 °C.

Regarding `CN(C)CCCN1N=C2C(=Cc3ccccc3)CS(=O)CC2C1c1ccccc1` (stereo unspecified), the melting point is 155 to 160 °C.

For the compound `CCOC(=O)C1CN(CC)c2nc(SC)ncc2C1=O` (stereo unspecified), the melting point was 157 °C.

The compound `O=C1CCC(CCC(=O)OCc2ccccc2Cl)N1` (stereo unspecified) had a melting point of 99 to 100 °C.

Compound `CCOC(=O)C(C)c1ccc(-c2cn3cccnc3n2)cc1` (stereo unspecified) registered a melting point of 171 to 173 °C.

As to `COc1c(C)c(N)c2c(c1C)C(c1ccc(C(C)C)cc1)C(C)(C)O2` (stereo unspecified), the melting point lay in the range of 111 to 112 °C.

The compound `CC(=O)C1C(=O)CC(CCS(=O)c2ccc(C(F)(F)F)cc2)CC1=O` (stereo unspecified) showed a melting point of 99 to 100 °C.

With `CCCCCCCCCCNC(=O)c1ccc([N+](=O)[O-])cc1`, the melting point was 89 to 91 °C.

`Nc1cccc(Oc2ccc(C(c3ccc(Oc4cccc(N)c4)cc3)(C(F)(F)F)C(F)(F)F)cc2)c1` came in with a melting point of 137 to 139 °C.

In the case of `COc1cc(OC)nc(NC(=O)NS(=O)(=O)c2ccccc2C=C2CCOC2=O)n1`, the melting point lay within 185 to 190 °C.

These data come from a melting point compilation (Tetko et al.; mined from patent text by program, amines drawn as free bases though some values may be those of a salt).
